Results as given in EP0507854B1 (priority 1989, dated 1991).

Tests used:
[1] = biological target: Influenza A (H1N1) neuraminidase (Influenza A virus, UniProt P03468); test: biochemical
[2] = biological target: Influenza A (H3N2) neuraminidase (Influenza A virus, UniProt P03482); test: biochemical
[3] = biological target: Influenza B neuraminidase (Influenza B virus, UniProt P03474); test: biochemical
fowl plague viral NA = details: result in words; cited from earlier work
A. ureafaciens NA = details: after 22 hrs; cited from earlier work
C. perfrinqens NA = details: after 22 hrs; cited from earlier work
V cholera NA = V cholera NA (Vibrio cholerae serotype O1, UniProt P0C6E9); details: after 22 hrs; cited from earlier work
V cholera NA, sequence (P0C6E9 25-781 limits assumed): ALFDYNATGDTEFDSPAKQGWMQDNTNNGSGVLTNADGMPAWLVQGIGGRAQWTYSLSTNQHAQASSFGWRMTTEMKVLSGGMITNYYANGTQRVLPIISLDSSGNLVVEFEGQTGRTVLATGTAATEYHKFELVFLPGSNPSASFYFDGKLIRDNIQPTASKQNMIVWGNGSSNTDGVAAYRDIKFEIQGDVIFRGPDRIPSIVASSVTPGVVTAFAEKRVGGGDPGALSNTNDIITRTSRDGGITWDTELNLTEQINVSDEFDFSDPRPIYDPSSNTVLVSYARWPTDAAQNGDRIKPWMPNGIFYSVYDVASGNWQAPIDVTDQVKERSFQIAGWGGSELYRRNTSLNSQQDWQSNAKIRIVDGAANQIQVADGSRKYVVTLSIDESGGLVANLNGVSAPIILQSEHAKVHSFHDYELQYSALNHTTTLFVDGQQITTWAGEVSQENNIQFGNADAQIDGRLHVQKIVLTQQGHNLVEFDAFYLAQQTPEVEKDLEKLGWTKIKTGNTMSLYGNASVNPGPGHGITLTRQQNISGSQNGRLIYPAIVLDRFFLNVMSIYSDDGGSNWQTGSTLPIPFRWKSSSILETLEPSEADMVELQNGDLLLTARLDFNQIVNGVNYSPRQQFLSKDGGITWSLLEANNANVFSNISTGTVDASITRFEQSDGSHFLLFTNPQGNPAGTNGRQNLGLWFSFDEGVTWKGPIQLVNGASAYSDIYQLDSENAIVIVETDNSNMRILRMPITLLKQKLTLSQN

Influenza A (H1N1) neuraminidase, sequence (P03468 whole entry, looked up): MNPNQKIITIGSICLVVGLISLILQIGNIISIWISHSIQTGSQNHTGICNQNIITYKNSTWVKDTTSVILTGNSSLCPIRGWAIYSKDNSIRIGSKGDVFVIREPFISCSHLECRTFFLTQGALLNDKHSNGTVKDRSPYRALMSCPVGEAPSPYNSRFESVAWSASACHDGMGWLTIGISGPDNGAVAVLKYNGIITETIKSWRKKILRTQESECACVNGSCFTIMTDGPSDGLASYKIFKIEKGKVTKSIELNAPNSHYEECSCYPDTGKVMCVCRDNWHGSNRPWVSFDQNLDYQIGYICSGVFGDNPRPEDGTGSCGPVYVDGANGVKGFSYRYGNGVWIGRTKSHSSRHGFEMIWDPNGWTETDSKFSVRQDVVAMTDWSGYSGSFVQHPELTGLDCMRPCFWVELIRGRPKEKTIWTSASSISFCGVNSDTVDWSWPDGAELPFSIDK
Influenza B neuraminidase, sequence (P03474 whole entry, looked up): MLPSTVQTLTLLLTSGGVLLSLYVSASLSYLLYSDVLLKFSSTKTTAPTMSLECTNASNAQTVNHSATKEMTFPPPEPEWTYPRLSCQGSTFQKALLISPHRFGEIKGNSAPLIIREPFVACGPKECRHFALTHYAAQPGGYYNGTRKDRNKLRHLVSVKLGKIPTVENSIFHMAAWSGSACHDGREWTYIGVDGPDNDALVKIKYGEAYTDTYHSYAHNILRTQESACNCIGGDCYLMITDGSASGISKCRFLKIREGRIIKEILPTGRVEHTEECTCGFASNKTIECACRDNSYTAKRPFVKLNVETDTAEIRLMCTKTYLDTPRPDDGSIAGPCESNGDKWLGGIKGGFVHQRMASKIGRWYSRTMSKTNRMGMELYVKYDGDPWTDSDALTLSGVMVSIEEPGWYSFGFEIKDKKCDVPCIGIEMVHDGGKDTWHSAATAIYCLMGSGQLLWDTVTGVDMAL
Influenza A (H3N2) neuraminidase, sequence (P03482 whole entry, looked up): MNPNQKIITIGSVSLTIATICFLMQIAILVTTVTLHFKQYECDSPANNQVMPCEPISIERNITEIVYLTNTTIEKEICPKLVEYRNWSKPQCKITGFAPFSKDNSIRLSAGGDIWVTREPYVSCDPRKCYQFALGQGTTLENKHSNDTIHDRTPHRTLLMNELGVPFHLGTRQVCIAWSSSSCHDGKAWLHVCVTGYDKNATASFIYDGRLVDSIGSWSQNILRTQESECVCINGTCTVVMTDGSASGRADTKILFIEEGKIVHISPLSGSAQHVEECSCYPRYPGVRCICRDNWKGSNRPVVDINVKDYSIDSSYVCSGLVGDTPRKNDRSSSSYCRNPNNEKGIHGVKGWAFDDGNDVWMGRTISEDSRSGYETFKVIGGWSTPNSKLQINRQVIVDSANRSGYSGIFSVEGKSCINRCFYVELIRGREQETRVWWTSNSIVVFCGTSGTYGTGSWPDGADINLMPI

With `CC(=O)N[C@@H]1CCC(O)(C(=O)O)O[C@H]1[C@H](O)[C@H](O)CO` (stereo partly drawn) [4-deoxy Neu5Ac, 4-deoxy-N-acetylneuraminic acid] as the molecule, how does the Ki [1] read?
Its Ki is 998 µM.

What about the Ki [2] of the same molecule?
The Ki was 2200 µM.

What about the Ki [3] of the same molecule?
Its Ki is 1050 µM.

Which substrate quality (fowl plague viral NA) does the source give for `CO[C@H]1CC(O)(C(=O)O)O[C@@H]([C@H](O)[C@H](O)CO)[C@@H]1NC(C)=O` (stereo partly drawn) [4-methoxy Neu5Ac, 4-methoxy-N-acetylneuraminic acid] here?
Its substrate quality is “excellent substrate”.

With `CC(=O)N[C@H]1[C@H]([C@H](O)[C@H](O)CO)OC(O)(C(=O)O)C[C@@H]1O` (stereo partly drawn) [Neu5Ac, N-acetylneuraminic acid] as the molecule, how does the Ki [1] read?
The Ki was 626 µM.

With `COC1(C(=O)O)CCC(NC(C)=O)C(C(O)C(O)CO)O1` (stereo not drawn) [methyl-alpha-glycoside of 4-deoxy Neu5Ac] as the molecule, how does the substrate quality (fowl plague viral NA) read?
Its substrate quality is “good substrate”.

With `CC(=O)NC1C(O)CC(OCc2ccccc2)(C(=O)O)OC1C(O)C(O)CO` [benzyl-alpha-glycosides of N-acetyl-4-epi-D-neuraminic acid] as the molecule, how does the substrate cleaved (A. ureafaciens NA) read?
Its substrate cleaved is 50%.

And the substrate cleaved (C. perfrinqens NA)?
Its substrate cleaved is 100%.

And the substrate cleaved (V cholera NA)?
The substrate cleaved was 11%.
